Measurements from patent US20240307334A1 (Lieber Institute, Inc., priority 2023, published 2024).
Where a name gives a salt, the structure may show the parent alone.

Key:
[1] = system: primary OPC/OL cultures from Tcf4+/tr and Tcf4+/+ mice; test: Primary OPC and OL cultures: immunocytochemistry quantification of OPCs and OLs normalized to Olig2; assay type: cell-based, mouse; conditions: for OPCs (PDGFRα+/Olig2+) / mature OLs (MBP+/Olig2+): Tcf4+/tr cells
Experimental: Mice were dosed at 1.0 mg/kg/day for 14 days with either Sob-AM2 or NMP/Kolliphor solution (vehicle). Initial dosing was performed at P28 up until P42 when animals were then used for subsequent experiments.
Primary OPC and OLs were obtained following a previous protocol^19. In brief, P2-P3 pups were dissociated and plated at a density of 10.0×10^3 cells/cm^2 in a 96 well ibidi plate coated in 0.1% polyethyleneimine (PEI) and 0.5-μg/mL laminin. Cells were plated and maintained in OPC proliferation media consisting of 1× StemPro Neural supplement (Thermo Fisher Scientific, A1050801), 1× Anti-Anti (Thermo Fisher Scientific, 15240-096), 10 ng/mL of Human FGF-basic (Peprotech, 100-18B) and 30 ng/mL rhPDGF-AA (R&D systems, 221-AA), with a half media exchange on DIV4.
(§1) Cells were rinsed 1× with PBS and then fixed with 4% paraformaldehyde (PFA) for 5 minutes, following fixation cells were rinsed 3× with PBS. Similarly, mice were perfused with 20-30 mLs of 1× PBS, followed by 20-30 mLs of 4% PFA. Tissue was extracted and post fixed in 4% PFA on a rocker at 4° C. overnight. For immunostaining cells were rinsed 3× with 0.04% Tween 20 (Sigma 655204) while tissue (P42 mouse) was rinsed 3× with 0.4% Triton (Sigma X100). Cells were blocked in respective serum (10%) for 2 hours at room temperature on an orbital shaker. Following block, primary antibody was added in 2% serum in 0.04% Tween 20 for cells and 0.4% Triton-X 100 for tissue, and incubated overnight at 4° C. Following overnight incubation cells were rinsed 3× with 0.04% Tween 20 or 0.4% Triton respectively before adding the secondary antibody to incubate at room temperature for 2 hours. After incubation, cells were rinsed 3× in respective buffers and counterstained with DAPI (Invitrogen™, D1306). Visualization was carried out on a ZEISS LSM 700 Confocal. Imaging and quantification were performed blind to genotypes and conditions/treatments.
Mei et al., 2014; Yoshida et al., 2020. Following a previously established protocol, Yoshida et al., 2020, we dissociated and plated OPCs from both Tcf4^+/+ and Tcf4^+/tr mice onto 96-well plates in OPC proliferation media. […] We performed blinded quantification of OPCs and OLs using antibodies against PDGFRα and MBP, respectively, and normalized our counts with the pan-OL marker OLIG2 (FIG. 1B).
Hartley et al., 2019. We performed blinded quantification of OPCs and OLs using antibodies against PDGFRα and MBP, respectively, and normalized our counts with the pan-OL marker OLIG2 (FIG. 7A).

[2] = system: Tcf4+/tr mouse model of PTHS; test: In vivo immunohistochemical (IHC) quantification of OPCs and OLs after two-week intraperitoneal dosing
Text: The Tcf4^+/tr mouse model of PTHS is heterozygous for an allele encoding deletion of the DNA-binding domain of TCF4 (B6; 129-TCF4tmlZhu/J, stock number 013598, Jackson Laboratory). This mouse colony was backcrossed for at least six generations, maintained by The Lieber Institute for Brain Developments Animal Facility on a 12-h light/dark cycle and fed ad libitum. Tcf4^+/tr mouse samples were matched with samples from Tcf4^+/+ littermates, and sex was randomly selected in each genotype and age group. All procedures were performed in accordance with the National Institutes of Health Guide for the Care and Use of Laboratory Animals and approved by the Johns Hopkins University School of Medicine's Institutional Animal Care and Use Committee.
(§2) The final pH was approximately 5.
(§3) Mice were dosed at 1.0 mg/kg/day for 14 days with either Sob-AM2 or NMP/Kolliphor solution (vehicle).
as §1
Next, we assessed the effectiveness of Sob-AM2 in vivo by dosing Tcf4^+/tr mice and Tcf4^+/+ littermates intraperitoneally with either Sob-AM2 (1 mg/kg) or vehicle for two weeks followed by immunohistochemical (IHC) quantification (FIG. 7D).

[3] = system: Tcf4+/tr mouse model of PTHS; test: Novel open field assay (locomotor activity and anxiety); assay type: in vivo; conditions: Tcf4+/tr mice
Experimental: as §2, §3
Locomotor activity and anxiety was assessed using Noldus PhenoTyper cages as previously shown. Mickelsen et al., 2019. Each cage is outfitted with two sets of cameras; one on the ceiling that faces the platform (35 cm×35 cm), and another pointed at the side of the cage. Mice were acclimated to the experimentation room in their home cages for at least 1 h. During acclimation, the Noldus EthoVision software was set-up to track movement for 30 total minutes. After acclimation, mice were placed in the center of the open field, opaque Plexiglas was placed on all four sides of the cage to obscure any visual cues, and the trial was started in the EthoVision software. After 30 min, the trial ended, and mice were placed back into their home cages. Noldus EthoVision software was used to determine distance traveled, time spent in center, and frequency of going to center.
Next we treated Tcf4^+/tr mice and Tcf4^+/+ littermates with Sob-AM2 for 14 days and then assayed their behavior in the open field (FIG. 8A).

[4] = following systemic administration, prodrug compared with sobetirome; cited from earlier work
[5] = system: Tcf4+/tr mouse model of PTHS; test: Transmission electron microscopy (TEM) of myelination in the corpus callosum; assay type: in vivo
Experimental: 5% DMA (dimethylacetamide, Sigma 271012) was added up to the total volume needed. […] The mixture was shaken vigorously (vortex) and was ready for administration for intraperitoneal (1P) dosing at 10 mL/kg. The final pH was approximately 5. […] Initial dosing was performed at P28 up until P42 when animals were then used for subsequent experiments.
After perfusion with a 0.1 M sodium cacodylate buffer, pH 7.2, containing 2% paraformaldehyde (freshly prepared from EM grade aqueous solution), 2% glutaraldehyde, and 3 mM MgCl2, p42 mouse brains were kept overnight in fixative. The next day brains were dissected in fixative and rinsed with sodium cacodylate buffer. Samples were then post-fixed in reduced 2% osmium tetroxide, 1.6% potassium ferrocyanide in buffer (2 hr) on ice in the dark. Following a dH2O rinse, samples were stained with 2% aqueous uranyl acetate (0.22 μm filtered, 1 hr, dark), dehydrated in a graded series of ethanol, propylene oxide and embedded in Eponate 12 (Ted Pella) resin. Samples were polymerized at 60° C. overnight. Thin sections, 60 to 90 nm, were cut with a diamond knife on the Reichert-Jung Ultracut E ultramicrotome and picked up with copper slot (1×2 mm) grids. Grids were stained with 2% uranyl acetate and observed with a Phillips CM120 TEM at 80 kV. Images were captured with an AMT XR80 CCD camera. Preparation of samples, TEM imaging, and quantification was performed blind to genotypes.
Blinded to genotype and condition, TEM images were taken on the CC directly above the hippocampus from anatomically equivalent tissue sections in littermates. […] To further validate this, we quantified BCAS1+ cells (pre-myelinating OLs).

multiple sclerosis = conditions: phase 2 clinical trial for multiple sclerosis; cited from earlier work
[6] = sobetirome (1 μM) 7 days to DIV14, compared to vehicle-treated Tcf4+/tr cells
[7] = Tcf4+/tr mice, Sob-AM2 1 mg/kg intraperitoneally for two weeks
[8] = Sob-AM2 for 14 days, compared to vehicle-treated Tcf4+/tr littermates
[9] = clemastine (1 μM) DIV7 to DIV14, compared to vehicle treated Tcf4+/tr cells
[10] = Tcf4+/tr mice, clemastine 10 mg/kg intraperitoneally for two weeks (P28-P42)
[11] = clemastine for 14 days, 30 min open field

Cc1cc(OCC(=O)O)cc(C)c1Cc1ccc(O)c(C(C)C)c1 [sobetirome]
OPCs (PDGFRα+/Olig2+) [1, 6]: significant reduction in OPCs | mature OLs (MBP+/Olig2+) [1, 6]: an increase in OLs

CNC(=O)COc1cc(C)c(Cc2ccc(O)c(C(C)C)c2)c(C)c1 [Sob-AM2]
OPCs (PDGFRα+/Olig2+) [2, 7]: significant decrease in OPCs | mature OLs (CC1+/Olig2+) [2, 7]: significant increase in mature OLs | frequency of entering the center of the open field [3, 8]: reduction in the frequency of entering the center of the open field | total distance traveled [3, 8]: significant reduction in total distance traveled | crossing of the blood brain barrier and distribution to the central nervous system [4]: better able to cross the blood brain barrier

CN1CCC[C@@H]1CCO[C@](C)(c1ccccc1)c1ccc(Cl)cc1 [clemastine, clemastine fumarate]
OPCs (PDGFRα+/Olig2+) [1, 9]: significant reduction in OPCs | mature OLs (MBP+/Olig2+) [1, 9]: an increase in OLs | total number of Olig2 positive cells, in vitro ([1]; all conditions, in vitro assay): no effect on the total number of Olig2 positive cells | number of BCAS1+ cells (pre-myelinating OLs) ([2]; Tcf4+/tr mice, 14 days clemastine): significantly increased the number of BCAS1+ cells | OPCs (PDGFRα+/Olig2+) [2, 10]: significant decrease in OPCs | mature OLs (CC1+/Olig2+) [2, 10]: significant increase in mature OLs | total number of Olig2 positive cells, in vivo ([2]; all conditions, in vivo assay): no effect on the total number of Olig2 positive cells | density of uncompacted myelin ([5]; Tcf4+/tr mice, clemastine vs vehicle-treated Tcf4+/tr mice): significantly increased the density of uncompacted myelin | proportion of uncompacted myelin ([5]; Tcf4+/tr mice, relative to vehicle-treated Tcf4+/+ mice): normalized the proportion of uncompacted myelin | total myelin density ([5]; Tcf4+/tr mice, two week clemastine treatment): unable to restore Tcf4^+/+ levels of total myelin density | proportion of compact myelin per image ([5]; clemastine Tcf4+/+ and clemastine Tcf4+/tr): less compaction overall | frequency of entering the center of the field [3, 11]: reduction in the frequency of entering the center of the field | total distance traveled [3, 11]: significant reduction in total distance traveled | remyelination in patients (multiple sclerosis): showed remyelination capabilities
